Source: paper PMC5590943, “Pharmacological characterisation of S 47445, a novel positive allosteric modulator of AMPA receptors” (PLoS ONE, 2017)

Columns and labels:
[1] = biological target: T1, human AMPA receptor GluA1i/2o (Homo sapiens, UniProt P42261+P42262, Q607R); experiment: Glutamate-evoked currents, oocytes expressing recombinant human AMPA receptors; type: cell-based
T1 construct: host or cells: Xenopus laevis oocytes
Description: (§1) Compounds were tested by bath application.

[2] = biological target: T2, human AMPA receptor GluA1o (GluA1 flop) (Homo sapiens, UniProt P42261); experiment: as above; type: cell-based
T2 construct: host or cells: Xenopus laevis oocytes
T2 sequence (P42261 19-906): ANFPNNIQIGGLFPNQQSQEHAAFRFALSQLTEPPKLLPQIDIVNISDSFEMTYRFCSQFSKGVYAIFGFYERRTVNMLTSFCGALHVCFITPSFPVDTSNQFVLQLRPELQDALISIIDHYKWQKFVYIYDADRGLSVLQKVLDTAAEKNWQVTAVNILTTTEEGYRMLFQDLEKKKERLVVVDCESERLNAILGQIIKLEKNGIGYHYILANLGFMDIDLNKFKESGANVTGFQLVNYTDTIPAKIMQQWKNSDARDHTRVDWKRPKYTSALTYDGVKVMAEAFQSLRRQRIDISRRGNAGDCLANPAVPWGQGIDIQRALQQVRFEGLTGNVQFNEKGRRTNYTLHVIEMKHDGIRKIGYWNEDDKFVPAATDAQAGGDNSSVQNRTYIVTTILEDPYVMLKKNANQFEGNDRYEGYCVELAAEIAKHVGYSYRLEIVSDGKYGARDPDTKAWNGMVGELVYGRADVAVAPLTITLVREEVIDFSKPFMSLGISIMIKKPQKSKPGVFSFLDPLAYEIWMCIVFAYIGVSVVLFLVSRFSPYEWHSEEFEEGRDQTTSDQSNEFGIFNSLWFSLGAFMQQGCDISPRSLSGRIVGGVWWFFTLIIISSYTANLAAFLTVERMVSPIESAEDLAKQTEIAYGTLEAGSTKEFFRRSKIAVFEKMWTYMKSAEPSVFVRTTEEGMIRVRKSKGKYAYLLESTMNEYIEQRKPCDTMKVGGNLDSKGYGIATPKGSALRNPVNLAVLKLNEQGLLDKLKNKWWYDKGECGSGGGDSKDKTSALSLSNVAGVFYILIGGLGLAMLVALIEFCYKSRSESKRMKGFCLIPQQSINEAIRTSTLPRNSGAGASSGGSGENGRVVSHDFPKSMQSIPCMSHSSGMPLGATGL
Description: as §1

[3] = tested on: human AMPA receptor GluA1o (GluA1 flop); experiment: as above; type: cell-based; details: S 47445 100 μM
Description: as §1

[4] = biological target: T3, human AMPA receptor GluA1o/2i (Homo sapiens, UniProt P42261+P42262, Q607R); experiment: as above; type: cell-based
T3 construct: host or cells: Xenopus laevis oocytes
T3 sequence (P42261 19-906): as above
T3 sequence (P42262 22-883 isoform P42262-2 Q607R limits assumed): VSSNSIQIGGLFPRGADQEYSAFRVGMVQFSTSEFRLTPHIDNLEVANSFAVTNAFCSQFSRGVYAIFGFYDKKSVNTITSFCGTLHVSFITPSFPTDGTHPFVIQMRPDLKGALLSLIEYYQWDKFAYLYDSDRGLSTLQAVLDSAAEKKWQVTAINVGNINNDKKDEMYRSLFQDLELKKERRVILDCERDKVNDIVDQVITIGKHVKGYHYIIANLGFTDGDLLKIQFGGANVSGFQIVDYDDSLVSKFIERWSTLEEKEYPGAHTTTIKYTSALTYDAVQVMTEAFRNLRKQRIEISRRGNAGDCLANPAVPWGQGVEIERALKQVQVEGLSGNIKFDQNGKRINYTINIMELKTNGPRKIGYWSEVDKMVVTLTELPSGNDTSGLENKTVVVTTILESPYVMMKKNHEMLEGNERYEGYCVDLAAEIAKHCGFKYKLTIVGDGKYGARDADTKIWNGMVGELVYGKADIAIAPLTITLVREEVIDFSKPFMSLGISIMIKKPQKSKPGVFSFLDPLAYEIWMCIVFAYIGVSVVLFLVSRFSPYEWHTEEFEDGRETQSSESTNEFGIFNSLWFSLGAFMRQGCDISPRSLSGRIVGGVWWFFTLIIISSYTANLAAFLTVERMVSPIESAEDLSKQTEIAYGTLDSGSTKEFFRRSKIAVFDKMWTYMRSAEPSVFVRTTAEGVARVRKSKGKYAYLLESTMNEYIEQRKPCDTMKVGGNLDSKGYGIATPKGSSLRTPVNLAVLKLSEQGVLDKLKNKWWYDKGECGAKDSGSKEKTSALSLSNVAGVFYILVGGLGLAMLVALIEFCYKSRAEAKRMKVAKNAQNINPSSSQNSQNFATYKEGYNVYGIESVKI
Description: as §1

[5] = biological target: T4, human AMPA receptor GluA1o/2o (Homo sapiens, UniProt P42261+P42262, Q607R); experiment: as above; type: cell-based
T4 construct: host or cells: Xenopus laevis oocytes
T4 sequence (P42261 19-906): as the sequence (P42261 19-906) above
T4 sequence (P42262 22-883 Q607R limits assumed): as the sequence (P42262 22-883 isoform P42262-2 Q607R limits assumed) above, with T744N, P745A, S754N, V758L, A775S, K776G, D777G, S778G, G779D counted along it
Description: as §1

[6] = biological target: T5, human AMPA receptor GluA4i/2i (Homo sapiens, UniProt P42262+P48058, Q607R); experiment: as above; type: cell-based
T5 construct: host or cells: Xenopus laevis oocytes
T5 sequence (P48058 21-902): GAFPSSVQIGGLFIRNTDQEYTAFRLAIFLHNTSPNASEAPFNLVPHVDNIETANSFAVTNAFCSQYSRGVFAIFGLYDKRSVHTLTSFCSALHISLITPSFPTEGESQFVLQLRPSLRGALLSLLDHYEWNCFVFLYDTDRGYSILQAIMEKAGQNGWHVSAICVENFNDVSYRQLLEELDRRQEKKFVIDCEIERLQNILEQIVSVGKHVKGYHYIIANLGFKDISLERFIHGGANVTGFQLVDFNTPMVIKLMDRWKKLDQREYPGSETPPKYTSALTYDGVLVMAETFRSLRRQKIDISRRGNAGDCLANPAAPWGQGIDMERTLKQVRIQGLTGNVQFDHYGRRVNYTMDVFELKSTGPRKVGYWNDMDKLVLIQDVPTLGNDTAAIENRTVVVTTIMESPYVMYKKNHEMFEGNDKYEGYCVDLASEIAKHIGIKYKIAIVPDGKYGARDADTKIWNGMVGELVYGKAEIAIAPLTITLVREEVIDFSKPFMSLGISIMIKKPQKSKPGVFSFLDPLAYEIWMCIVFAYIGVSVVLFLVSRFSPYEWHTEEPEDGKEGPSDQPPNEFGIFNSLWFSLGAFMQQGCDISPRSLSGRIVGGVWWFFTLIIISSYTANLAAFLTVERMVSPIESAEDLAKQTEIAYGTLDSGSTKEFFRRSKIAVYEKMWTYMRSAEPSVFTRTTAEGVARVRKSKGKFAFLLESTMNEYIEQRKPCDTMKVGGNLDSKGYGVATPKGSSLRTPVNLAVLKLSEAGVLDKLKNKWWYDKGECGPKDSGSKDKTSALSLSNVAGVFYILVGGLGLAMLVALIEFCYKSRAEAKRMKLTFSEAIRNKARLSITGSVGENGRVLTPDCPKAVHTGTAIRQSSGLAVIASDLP
T5 sequence (P42262 22-883 isoform P42262-2 Q607R limits assumed): as the sequence (P42262 22-883 isoform P42262-2 Q607R limits assumed) above
Description: as §1

[7] = tested on: recombinant human AMPA receptors (GluA1, GluA2 and GluA4 flip and flop variants); experiment: Glutamate-evoked currents, oocytes, across GluA recombinants; type: cell-based; details: all tested subtypes except GluA4 flop; read-out: EC50 values among most GluA recombinants
Description: as §1

[8] = biological target: T6, GluA1flop/GluA2flip AMPA receptors (Homo sapiens, UniProt P42261+P42262, Q607R); experiment: 10 μM glutamate-evoked currents in Xenopus laevis oocytes expressing GluA1flop/GluA2flip (repetitive pulses, GYKI52466); type: cell-based; details: for EC50: n = 3
T6 construct: host or cells: Xenopus laevis oocytes
T6 sequence (P42261 19-906): as the sequence (P42261 19-906) above
T6 sequence (P42262 22-883 isoform P42262-2 Q607R limits assumed): as the sequence (P42262 22-883 isoform P42262-2 Q607R limits assumed) above
Description: as §1
To test the inhibition, the selective AMPA receptor antagonist GYKI52446 was used from 10 to 1000 μM on the potentiation caused by S 47445 (1 μM).
EC50 were determined either using Matlab (Mathworks inc., Natick, USA) or SAS v9.2 (SAS Institute inc., Cary, USA) softwares. To have a comparative value between the tested drugs when EC50 could not be determined (absence of plateau at high concentrations), the EC2X was determined. EC2X corresponds to the concentrations of the drug responsible for a two-fold increase in the amplitude of the current.

[9] = Solubility noted in co-crystallization experiments with GluA2; type: physicochemical; details: prevented co-crystallization with GluA2
[10] = parameters: method as in previous kinetic experiments (reference not given); details: 0.3 mg/kg oral, mice; ref previous kinetic experiments (reference not given); read-out: Cerebral Cmax; cited from earlier work
[11] = tested on: CA3-CA1 hippocampal synapses; parameters: method as in PMID 28603025; details: cited from earlier work
[12] = tested on: SK^+Ca channel; experiment: Binding assay, [125I]apamin
[13] = tested on: α2 (non-selective); experiment: Binding assay, [3H]RX 821002
[14] = biological target: Estrogen a (h) (ERa) (Homo sapiens, UniProt P03372); experiment: Binding assay, fluormone ES2
Sequence of Estrogen a (h) (ERa) (P03372 whole entry): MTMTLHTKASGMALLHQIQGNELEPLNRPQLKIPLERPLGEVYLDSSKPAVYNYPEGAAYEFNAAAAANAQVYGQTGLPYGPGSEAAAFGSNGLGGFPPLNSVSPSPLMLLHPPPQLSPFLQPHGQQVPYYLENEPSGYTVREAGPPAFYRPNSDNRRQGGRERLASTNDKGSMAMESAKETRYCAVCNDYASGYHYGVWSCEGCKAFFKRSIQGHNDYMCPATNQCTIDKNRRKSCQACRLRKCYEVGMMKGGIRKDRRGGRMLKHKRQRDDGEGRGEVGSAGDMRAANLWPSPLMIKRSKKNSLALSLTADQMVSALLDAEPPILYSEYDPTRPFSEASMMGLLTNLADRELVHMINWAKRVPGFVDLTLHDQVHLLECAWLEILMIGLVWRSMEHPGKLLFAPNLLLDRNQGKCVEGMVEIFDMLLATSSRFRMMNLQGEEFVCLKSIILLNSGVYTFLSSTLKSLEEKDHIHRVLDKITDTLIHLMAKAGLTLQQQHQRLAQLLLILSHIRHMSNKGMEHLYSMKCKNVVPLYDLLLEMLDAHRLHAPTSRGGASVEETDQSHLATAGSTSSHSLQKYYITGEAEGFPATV

[15] = tested on: K^+ATP channel; experiment: Binding assay, [3H]glibenclamide
[16] = tested on: K^+V channel; experiment: Binding assay, [125I]α-dendrotoxin
[17] = tested on: Androgen (h) (AR); experiment: Binding assay, [3H]methyltrienolone
[18] = tested on: I1; experiment: Binding assay, [3H]clonidine (+ 10 μM RX821002)
[19] = tested on: PDE4 (h); experiment: Enzyme and cell-based assay, [3H]cAMP + cAMP (1 μM)
[20] = tested on: AMPA; experiment: Binding assay, [3H]AMPA, rat cerebral cortex membranes
[21] = tested on: Phospholipase A2; experiment: Enzyme and cell-based assay, [3H]phosphatidylethanolamine
[22] = tested on: Adenylyl cyclase (stimulated); experiment: Enzyme and cell-based assay, ATP (0.5 mM) / forskolin (10 μM)
[23] = biological target: AMPA/Kainate chimerae GluA1(K2S1) (Homo sapiens, UniProt P42261, A392I/A426D/A443L/A444R/A447S/A473Q/A536S/C542Y/D385S/D386Q/D417E/D470A/D533N/DEL395-402/E430Y/E441D/E457R/E501K/E538D/F388G/F429L/F545L/G479R/G484H/H449I/I446L/I458L/I518Y/I548L/INS382DPASGLNM/INS391N/INS555VIA/K448T/K472G/K519R/K523G/K525N/L422F/L456I/L497Y/M421L/M517L/N383T/N425S/N427K/P469D/Q405S/Q428P/Q522N/R455E/R467Q/R485K/S453T/S460E/S511T/S524T/T408S/T471N/T494A/V389K/V404L/V440I/V450L/V482I/V488L/V544L/V552C/Y381T/Y409L/Y435F/Y452F/Y483D/Y537P); experiment: Glutamate-evoked current in oocytes expressing AMPA/Kainate chimera; details: n = 5
Sequence of AMPA/Kainate chimerae GluA1(K2S1) (P42261 with tags, fused parts or gaps with the stated changes): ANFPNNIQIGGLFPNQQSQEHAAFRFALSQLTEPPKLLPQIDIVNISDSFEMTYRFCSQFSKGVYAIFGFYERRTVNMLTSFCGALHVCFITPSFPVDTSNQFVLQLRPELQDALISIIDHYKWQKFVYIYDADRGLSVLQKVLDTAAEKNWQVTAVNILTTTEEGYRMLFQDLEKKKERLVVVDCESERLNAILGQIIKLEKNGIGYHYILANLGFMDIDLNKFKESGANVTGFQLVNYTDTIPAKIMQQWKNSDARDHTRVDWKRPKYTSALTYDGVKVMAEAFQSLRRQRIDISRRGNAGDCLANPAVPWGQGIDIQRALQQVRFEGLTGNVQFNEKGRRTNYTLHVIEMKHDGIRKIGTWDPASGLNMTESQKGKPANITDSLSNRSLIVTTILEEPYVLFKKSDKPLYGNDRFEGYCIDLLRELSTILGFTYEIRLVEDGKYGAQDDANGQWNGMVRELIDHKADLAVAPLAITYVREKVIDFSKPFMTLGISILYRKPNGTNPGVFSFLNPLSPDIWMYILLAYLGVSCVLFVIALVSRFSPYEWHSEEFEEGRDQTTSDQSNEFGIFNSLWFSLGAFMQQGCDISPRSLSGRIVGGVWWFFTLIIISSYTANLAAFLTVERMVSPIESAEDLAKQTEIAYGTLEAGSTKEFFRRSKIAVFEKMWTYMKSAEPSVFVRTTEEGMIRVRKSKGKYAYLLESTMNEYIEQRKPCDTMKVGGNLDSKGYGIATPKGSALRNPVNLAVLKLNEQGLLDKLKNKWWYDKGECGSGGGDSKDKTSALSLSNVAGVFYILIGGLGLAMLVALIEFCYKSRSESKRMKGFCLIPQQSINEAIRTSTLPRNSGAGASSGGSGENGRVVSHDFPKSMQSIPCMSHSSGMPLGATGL

[24] = tested on: NMDA receptors; experiment: NMDA-evoked currents, oocytes injected with rat cortex poly(A+) mRNA; details: n = 3
[25] = tested on: kainate receptors; experiment: Kainate-evoked currents, oocytes injected with rat cortex poly(A+) mRNA; details: n = 3

T1 sequence (P42261 19-906 isoform P42261-2 limits assumed, stated change not applied): as the sequence (P42261 19-906) above, with N740G, N750S, L754V, N760S, G772K, G773D, G774S, D775G counted along it
T1 sequence (P42262 22-883 Q607R limits assumed): as the sequence (P42262 22-883 isoform P42262-2 Q607R limits assumed) above, with T744N, P745A, S754N, V758L, A775S, K776G, D777G, S778G, G779D counted along it

## O=C1c2cc3nnn(CCc4cccc(F)c4)c(=O)c3cc2OCN1C1CC1 [S 47445, 8-cyclopropyl-3-[2-(3-fluorophenyl)ethyl]-7,8-dihydro-3H-[1,3]oxazino[6,5-g][1,2,3]benzotriazine-4,9-dione]
[1]
  EC50: 4.3 µM
[2]
  EC50: 2500 nM
[3]
  Amplitude of potentiation, flop variants compared to flip variants at GluA1: about 9 fold
[4]
  EC50: 5.4 µM
[5]
  EC50: 3.9 µM
[6]
  EC50: 5.4 µM
[7]
  EC50: 2.5 to 5.4 µM
[8]; EC50 of potentiation in absence of GYKI52466, 10 μM glutamate
  EC50: 3230 ± 500 nM
[8]; EC50 of potentiation in presence of 100μM of GYKI52466, 10 μM glutamate
  EC50: 1990 ± 300 nM
[8]; S 47445 0.1 and 0.3 μM, 10 μM glutamate 20 s, 1/min
  Effect on glutamate-evoked currents with repetitive glutamate pulses: progressive potentiation of the glutamate-evoked currents from the second pulse of glutamate
[9]
  Solubility: poor solubility
[10]
  Cmax: 100 to 200 nM
[11]; 10 mg/kg chronic, old alert mice
  Age-related deficit of LTP: significantly counteracted the deficit of LTP
[11]; 10 mg/kg p.o. acute, young alert mice
  Long term potentiation (LTP) versus vehicle: significantly increased long term potentiation
[12]; S 47445 1.0E-05 M
  % Inhibition of control specific binding: -10%
[12]; S 47445 1.0E-07 M
  % Inhibition of control specific binding: 13%
[13]; S 47445 1.0E-05 M
  % Inhibition of control specific binding: -5%
[13]; S 47445 1.0E-07 M
  % Inhibition of control specific binding: -2%
[14]; S 47445 1.0E-05 M
  % Inhibition of control specific binding: 5%
[14]; S 47445 1.0E-07 M
  % Inhibition of control specific binding: 4%
[15]; S 47445 1.0E-05 M
  % Inhibition of control specific binding: 0%
[15]; S 47445 1.0E-07 M
  % Inhibition of control specific binding: 6%
[16]; S 47445 1.0E-05 M
  % Inhibition of control specific binding: -2%
[16]; S 47445 1.0E-07 M
  % Inhibition of control specific binding: -6%
[17]; S 47445 1.0E-05 M
  % Inhibition of control specific binding: -5%
[17]; S 47445 1.0E-07 M
  % Inhibition of control specific binding: 0%
[18]; S 47445 1.0E-05 M
  % Inhibition of control specific binding: 21%
[18]; S 47445 1.0E-07 M
  % Inhibition of control specific binding: 10%
[19]; S 47445 1.0E-05 M
  % Inhibition of control specific binding: -12%
[19]; S 47445 1.0E-07 M
  % Inhibition of control specific binding: 20%
[20]; S 47445 1.0E-05 M
  % Inhibition of control specific binding: -8%
[20]; S 47445 1.0E-07 M
  % Inhibition of control specific binding: 1%
[20]; read-out: Ki, glutamate binding site, n = 2
  Ki: > 10 µM
[21]; S 47445 1.0E-05 M
  % Inhibition of control specific binding: -4%
[21]; S 47445 1.0E-07 M
  % Inhibition of control specific binding: 0%
[22]; S 47445 1.0E-05 M
  % Inhibition of control specific binding: -21%
[22]; S 47445 1.0E-07 M
  % Inhibition of control specific binding: 6%
[23]
  Potentiating effect on glutamate-evoked current: lost
[24]
  Effect at NMDA-evoked currents: absence of effect
[25]
  Effect at kainate-evoked currents: absence of effect
